Data reported in publication PMC11329928, “Design, synthesis and structure-activity relationship (SAR) studies of an unusual class of non-cationic fatty amine-tripeptide conjugates as novel synthetic antimicrobial agents” (Frontiers in Pharmacology, 2024).
Structures can show the parent of a compound that is named as a salt. Where two headings read alike, the source gives them in different places.

Assays:
Type in all cases: cell-based
[1] = tested on: Pseudomonas aeruginosa PAO1; assay: Growth inhibition screening of planktonic cultures (OD550/600); design: key: (+++) full inhibition; (++) partial inhibition; (+) growth retardation; -: (−) no effect; conditions: P. aeruginosa PAO1, 50 and 100 μM compound added at T1, OD550/600 followed 10 h, 37°C
Method: (§1) Planktonic cultures of selected pathogens (S. pneumoniae R6, S. pyogenes ^T, Staphylococcus aureus ^T, Escherichia coli DH10B, and Pseudomonas aeruginosa PAO1 strains) on early logarithmic-phase (T1) were assayed for their sensitivity to a broad range of DICAM compounds, as indicated in Table 1. Their bacteriostatic or lytic effect was first tested by measuring the variation of the OD550/600 as a function of time (10 h) when (50/100 μM) DICAMs were added, compared to untreated controls. The screening results, summarized in Table 1, evidenced that a potent antimicrobial activity may exist even when the negative charge of the peptide was higher than in the prototype compounds.
(§2) Susceptibility to DICAMs was first tested by growth-inhibition assays at 50 and 100 μM of compound. Briefly, working solutions at 5 mM or 10 mM DICAM in pure DMSO were prepared from DICAM stocks (40 mM in pure DMSO) and diluted with fresh culture medium to 5× the desired final concentration. Aliquots (50 µL) of these solutions were added to 200 µL of bacterium cultures grown to early exponential phase (OD550/600 c. a. 0.15–0.2 in sterile 96-well plates (Cultek, Spain). Incubation continued for 10 h at 37°C and turbidity (OD550/600) values were measured every 20 min to monitor growth and lysis, using a VersaMax microplate reader (Molecular Devices; United Kingdom). Next, the activity dependence on DICAM’s dose was examined by measuring the turbidity of treated and untreated cultures as a function of time. Also, the decay of bacterial viability (CFU/mL) at selected times of treatment was assessed by colony counting on LB-agar or TSA plates after overnight incubation at 37°C. By default, 10 μL of 10-fold serially diluted samples were plated, which set the lower detection limit at 10^2 CFU/mL (10^1 CFU/mL when 100 μL of the undiluted sample was seeded).

Escherichia coli DH10B = assay: as above; design: key: (+++) full inhibition; (++) partial inhibition; (+) growth retardation; -: (−) no effect; conditions: E. coli DH10B, 50 and 100 μM compound added at T1, OD550/600 followed 10 h, 37°C
Method: as §1, §2

Staphylococcus aureus T = assay: as above; design: key: (+++) full inhibition; (++) partial inhibition; (+) growth retardation; -: (−) no effect; conditions: S. aureus T, 50 and 100 μM compound added at T1, OD550/600 followed 10 h, 37°C
Method: as §1, §2

Streptococcus pyogenes T = assay: as above; design: key: (+++) full inhibition; (++) partial inhibition; (+) growth retardation; -: (−) no effect; conditions: S. pyogenes T, 50 and 100 μM compound added at T1, OD550/600 followed 10 h, 37°C
Method: as §1, §2

[2] = tested on: human lung carcinoma epithelial cells A549
Method: (§3) DICAM’s cytotoxicity was determined employing a modified MTT assay as described elsewhere ([Antúnez-Mojica et al., 2016]) using human lung carcinoma epithelial cells A549, human fetal lung fibroblasts IMR-90, and human HeLa cervix carcinoma cells treated with increasing concentrations of DICAMs (0.8–200 µM range). A549 cells were grown in RPMI 1640 (Gibco; Fisher Scientific, Spain) supplemented with 10% FCS, 2 mM glutamine, 100 IU/mL penicillin and 100 μg/mL streptomycin. IMR-90 and HeLa cells were cultured in DMEM (Gibco; Fisher Scientific, Spain) supplemented with 10% FCS, 2 mM L-glutamine, 1 mM pyruvate, […] penicillin, 100 μg/mL streptomycin and 40 μg/mL gentamycin. Cell viability was assessed after 48 h exposure to DICAMs. Vinblastine was used as a positive control. IC50 value is the concentration that gives 50% inhibition of cell growth and was determined using SigmaPlot (Systat) fitting to a Four Parameter Logistic curve.

[3] = tested on: human HeLa cervix carcinoma cells
Method: as §3

[4] = tested on: Streptococcus pneumoniae R6; assay: Growth inhibition / lysis screening of planktonic cultures (OD550/600); design: key: (+++) full inhibition; (++) partial inhibition; (+) growth retardation; -: (−) no effect; conditions: S. pneumoniae R6, 50 and 100 μM compound added at early logarithmic phase (T1), OD550/600 followed 10 h, 37°C
Method: as §1, §2

Compound	Growth halt or lysis (50/100 μM), Pa [1]	Growth halt or lysis (50/100 μM), Ec (Escherichia coli DH10B)	Growth halt or lysis (50/100 μM), Sa T (Staphylococcus aureus T)	Growth halt or lysis (50/100 μM), Spy T (Streptococcus pyogenes T)	IC50 ([2]; 48 h)	IC50 ([3]; 48 h)	Growth halt or lysis (50/100 μM), Spn [4]	IC50 ([2]; modified MTT, 48 h exposure, 0.8–200 µM, four parameter logistic fit, ± SD, at least three independent experiments, read-out: IC50 A549)	IC50 ([3]; modified MTT, 48 h exposure, 0.8–200 µM, four parameter logistic fit, ± SD, at least three independent experiments, read-out: IC50 HeLa)
CCCCCCCCCCCCCCCCCCNC(=O)[C@H](CCC(=O)O)NC(=O)[C@H]1CCCN1C(=O)[C@H](C)N [DICAM 4, Ala- Pro -Glu-NH-C18H37 ·HCl]	-	-	++	+++	≥ 25 µM	32 ± 2 µM	+++		
CCCCCCCCCCCCCCCCCCNC(=O)[C@H](CCC(=O)O)NC(=O)[C@H]1CCCN1C(=O)[C@H](CC(N)=O)NC(=O)OCc1ccccc1 [DICAM 1, Cbz-Asn- Pro -Glu-NH-C18H37]	-			+++	45 ± 6 µM	29 ± 2 µM	+++		
CCCCCCCCCCCCCCCCCCNC(=O)[C@H](CCC(=O)O)NC(=O)[C@H]1CCCN1C(=O)[C@H](CCCN)NC(=O)OCc1ccccc1 [DICAM 21, Cbz-Orn- Pro -Glu-NH-C18H37]	-	-	+	+++			+++		
CCCCCCCCCCCCCCCCCCNC(=O)[C@H](CCC(=O)O)NC(=O)[C@H]1CCCN1C(=O)[C@@H](N)CC(N)=O [DICAM 2, Asn- Pro -Glu-NH-C18H37 ·HCl]	-	-	++	+++	42 ± 5 µM	42 ± 2 µM	+++		
CCCCCCCCCCCCCCCCNC(=O)[C@H](CCC(=O)O)NC(=O)[C@H]1CCCN1C(=O)[C@H](CC(N)=O)NC(=O)OCc1ccccc1 [DICAM 10, Cbz-Asn- Pro -Glu-NH-C16H33]	-			+++	35 ± 2 µM	28 ± 0.7 µM	+++		
Ala - Pro -Glu-NH-C18H37 · HCl [DICAM 23]	-	-	++	+++			+++	80.6 ± 0.2 µM	13.4 ± 0.9 µM
CCCCCCCCCCCCCCCCCCNC(=O)[C@H](C)NC(=O)[C@H]1CCCN1C(=O)[C@H](C)N [DICAM 14, Ala- Pro -Ala-NH-C18H37 · HCl]	-	-	+++	+++	8 ± 0.3 µM	6.3 ± 0.7 µM	+++		
CCCCCCCCCCCCCCCCCCNC(=O)[C@H](CCC(=O)O)NC(=O)[C@H]1CCCN1C(=O)[C@H](CCC(=O)O)NC(=O)OCc1ccccc1 [DICAM 19, Cbz-Glu- Pro -Glu-NH-C18H37]	-	-	+	+++	45 ± 2 µM	46 ± 2 µM	+++		
CCCCCCCCCCCCCCCCCCNC(=O)[C@H](CCC(=O)O)NC(=O)[C@H]1CCCN1C(=O)[C@H](C)NC(C)=O [DICAM 24, Ac-Ala- Pro -Glu-NH-C18H37]		-	++	+++	40 ± 3 µM	28.4 ± 0.2 µM	+++		
CCCCCCCCCCCCCCCCCCNC(=O)[C@H](CCC(=O)O)NC(=O)[C@H]1CCCN1C(=O)[C@H](C)NC(=O)OCc1ccccc1 [DICAM 3, Cbz-Ala- Pro -Glu-NH-C18H37]	-	-	-	+++	59.2 ± 0.7 µM	49.2 ± 1.5 µM	+++		
CCCCCCCCCCCCCCCCCCNC(=O)[C@H](CCC(=O)O)NC(=O)[C@H]1CCCN1C(=O)[C@@H](N)CCC(=O)O [DICAM 20, Glu- Pro -Glu-NH-C18H37 · HCl]	-	-	++	+++	91 ± 2 µM	59.2 ± 0.1 µM	+++		
CCCCCCCCCCCCCCCCCCNC(=O)[C@H](CCC(=O)O)NC(=O)[C@H]1CCCN1C(=O)[C@@H](N)CCCN [DICAM 22, Orn- Pro -Glu-NH-C18H37 · HCl]	-	-	+	++	59.6 ± 0.9 µM	57.2 ± 0.4 µM	+++		
